Data on five molecules can be found in US5681842A, “Prostaglandin synthase-2 inhibitors” (Abbott Laboratories, priority 1996, dated 1997).

In one assay the target is T1, recombinant human PGHS-2 (Homo sapiens, UniProt P35354).
T1 construct: made in house; host or cells: baculovirus/Sf9 insect cells (microsomes)
T1 sequence (P35354 18-604): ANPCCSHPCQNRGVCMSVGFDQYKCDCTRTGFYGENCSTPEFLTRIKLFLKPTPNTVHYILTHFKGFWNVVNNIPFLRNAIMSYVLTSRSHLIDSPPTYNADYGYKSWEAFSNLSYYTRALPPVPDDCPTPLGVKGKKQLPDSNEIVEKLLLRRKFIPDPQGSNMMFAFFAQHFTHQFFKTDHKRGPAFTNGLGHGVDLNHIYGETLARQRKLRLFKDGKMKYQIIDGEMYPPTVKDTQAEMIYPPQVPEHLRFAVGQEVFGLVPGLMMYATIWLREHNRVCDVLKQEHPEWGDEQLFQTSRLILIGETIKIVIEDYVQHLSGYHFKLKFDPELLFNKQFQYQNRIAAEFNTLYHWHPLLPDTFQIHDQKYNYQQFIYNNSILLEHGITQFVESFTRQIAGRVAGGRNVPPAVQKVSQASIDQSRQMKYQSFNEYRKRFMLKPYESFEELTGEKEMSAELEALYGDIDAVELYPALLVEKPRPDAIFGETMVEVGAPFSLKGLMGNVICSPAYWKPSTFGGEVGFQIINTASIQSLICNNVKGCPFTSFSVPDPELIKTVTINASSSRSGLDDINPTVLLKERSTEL
Put plainly: Recombinant human PGHS-2 enzyme assay (PGE2 by EIA). The note with it: for inhibition at 0.1 µM: 100 nM compound, microsomes, 60 min preincubation, 10 μM arachidonic acid, read-out: RHuPGHS-2 (% I @ 100 nM). The format is biochemical. As for the experimental part: (§1) A compound of the invention dissolved in DMSO (3.3% v/v) was preincubated with microsomes from recombinant human PGHS-1 or PGHS-2 expressed in the baculovirus/Sf9 cell system (Gierse, J. K., Hauser, S. D., Greely, D. P., Koboldt, C., Rangwala, S., H., Isakson, P. C., and Seibert, K. "Expression and selective inhibition of the constitutive and inducible forms of cyclooxygenase", Biochem J. 305:479 (1995)), together with the cofactors phenol (2 mM) and hematin (1 μM) for 60 minutes prior to the addition of 10 μM arachidonic acid. The reaction was allowed to run for 2.5 minutes at room temperature prior to quenching with HCl and neutralization with NaOH. PGE2 production in the presence and absence of the drug was determined by EIA analysis.
(§2) EIA reagents for prostaglandin determination were purchased from Perseptive Diagnostics, Cambridge, Mass. PGE2 levels in lavage fluids were determined after the samples were dried under nitrogen and reconstituted with assay buffer. PGE2 levels in enzyme assays or cell culture media were measured against standards prepared in the same milieu. The immunoassays were conducted as recommended by the manufacturer. The EIA was conducted in 96 well microtiter plates (Nunc Roskilde, Denmark) and optical density measured using a microplate reader (Vmax, Molecular Devices Corp., Menlo Park, Calif.).

For another assay, the target named is T2, recombinant human PGHS-1 (Homo sapiens, UniProt P23219).
T2 construct: made in house; host or cells: baculovirus/Sf9 insect cells (microsomes)
T2 sequence (P23219 24-599): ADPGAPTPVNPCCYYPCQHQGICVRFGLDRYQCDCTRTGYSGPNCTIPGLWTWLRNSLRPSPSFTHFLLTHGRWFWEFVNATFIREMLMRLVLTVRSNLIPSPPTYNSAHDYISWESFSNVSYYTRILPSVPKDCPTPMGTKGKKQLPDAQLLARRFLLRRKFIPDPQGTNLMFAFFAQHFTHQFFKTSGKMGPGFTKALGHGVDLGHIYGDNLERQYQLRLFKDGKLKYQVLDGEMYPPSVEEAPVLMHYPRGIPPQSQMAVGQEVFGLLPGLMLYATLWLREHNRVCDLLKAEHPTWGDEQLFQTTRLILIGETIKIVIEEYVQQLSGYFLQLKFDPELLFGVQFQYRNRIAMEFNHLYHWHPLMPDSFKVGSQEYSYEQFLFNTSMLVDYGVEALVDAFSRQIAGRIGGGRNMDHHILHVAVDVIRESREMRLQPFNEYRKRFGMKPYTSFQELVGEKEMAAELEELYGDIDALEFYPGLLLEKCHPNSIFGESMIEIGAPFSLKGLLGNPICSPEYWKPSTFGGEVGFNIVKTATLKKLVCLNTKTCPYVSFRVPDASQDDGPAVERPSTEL
Description: Recombinant human PGHS-1 enzyme assay (PGE2 by EIA). The format is biochemical. As to conditions: 100 μM compound; microsomes, 60 min preincubation, 10 μM arachidonic acid; read-out: RHuPGHS-1 (% I @ 100μM). As for the experimental part:
as §1, §2

In assay [1] the test system is prostaglandin production in the pleural cavity. Description: Carrageenan induced pleurisy test (CIP). Format: in vivo, Sprague-Dawley rats. The note with it: rats, 10 mg/kg oral, 30 minutes prior to intrapleural carrageenan; lavage four hours after. The protocol:
as §2
Inhibition of carrageenan induced pleurisy in rats was determined essentially as described by F. B. De Brito, (Pleurisy and Pouch Models of Acute Inflammation in Pharmalogical Methods in the Control of Inflammation, Eds, J. Y. Chang and A. J. Lewis, Alan Liss Inc., New York: 173-194, 1989) and Vinegar et al. ("Quantitative studies of the pathway to acute carrageenan inflammation", Fed. Proc., 35:2447-2456 (1976)). Briefly, eight Sprague-Dawley rats were orally dosed with 10 mg/kg of a compound of the invention 30 minutes prior to intrapleural injection of 2% lambda carrageenan (Sigma Chemical Co., St. Louis Mo.). Four hours after carrageenan injection, the animals were euthanized and their pleural cavities lavaged with ice cold saline. The lavage fluid was then added to two volumes of ice cold methanol (final methanol concentration 66%) to lyse cells and precipitate protein. Prostaglandin levels in the methanol/lavage fluid were then determined by EIA.

The structures appear in SMILES notation.

For the molecule `CS(=O)(=O)Nc1ccc([N+](=O)[O-])cc1Oc1ccc2ccccc2c1` [Example 1, N(4-Nitro-2-(naphth-2'-yloxy)phenyl)methanesulfonamide], at recombinant human PGHS-2, the inhibition at 0.1 µM was 65%. In addition, the inhibition at 100 µM at recombinant human PGHS-1 stood at 47%.
Consider `CS(=O)(=O)Nc1ccc([N+](=O)[O-])cc1Oc1ccc2cc(F)ccc2c1` [Example 2, N-(4-Nitro-2-(6'-fluoro-naphth-2'-yloxy)phenyl)methanesulfonamide], for which the inhibition at 0.1 µM at recombinant human PGHS-2 was determined as 56%. Moreover, the “inhibition of prostaglandin production in the pleural cavity” value (“inhibition of prostaglandin production” for short) in assay [1] is 20%. Also, the inhibition at 100 µM on recombinant human PGHS-1 was 26%.
With `CS(=O)(=O)Nc1ccc([N+](=O)[O-])cc1Oc1ccc2sccc2c1` [Example 3, N-(4-Nitro-2-(benzothiophen-5'-yloxy)phenyl)methanesulfonamide], the inhibition at 0.1 µM at recombinant human PGHS-2 was found to be 59%. The “inhibition of prostaglandin production” value in assay [1] turned out to be 48%. Also, the inhibition at 100 µM on recombinant human PGHS-1 was 89%.
Consider `CS(=O)(=O)Nc1ccc([N+](=O)[O-])cc1Oc1ccc2ncsc2c1` [Example 4], for which the inhibition at 0.1 µM at recombinant human PGHS-2 stood at 43%. Moreover, in assay [1], the “inhibition of prostaglandin production” value turned out to be 66%. The inhibition at 100 µM at recombinant human PGHS-1 worked out at 31%.
Regarding `CS(=O)(=O)Nc1ccc([N+](=O)[O-])cc1Oc1ccc2c(c1)OCO2` [Example 5, N-(4-Nitro-2-(1,3-benzodioxol-6-yloxy)phenyl)methanesulfonamide], on recombinant human PGHS-2, the “inhibitory potency against recombinant human PGHS-2 (in words)” value was “most potent” and the inhibition at 0.1 µM was 77%. For the same molecule, the “inhibition of prostaglandin production” value in assay [1] is listed as 36%. Moreover, the inhibition at 100 µM at recombinant human PGHS-1 turned out to be 89%.
